Columns and labels:
[1] = system: Sphaerotheca fuliginea; test: in vivo preventive test on Sphaerotheca fuliginea (cucumber); conditions: 500 ppm of active ingredient, evaluated 7 days after inoculation
Method: Solvent: 49 parts by weight of N,N-dimethylformamide Emulsifier: 1 part by weight of Alkylarylpolyglycolether To produce a suitable preparation of active compound, 1 part by weight of active compound is mixed with the stated amounts of solvent and emulsifier, and the concentrate is diluted with water to the desired concentration. To test for preventive activity, young plants are sprayed with the preparation of active compound at the stated rate of application. One day after this treatment, the plants are inoculated with an aqueous spore suspension of Sphaerotheca fuliginea. Then the plants are placed in a greenhouse at approximately 23° C. and a relative atmospheric humidity of approximately 70%. The test is evaluated 7 days after the inoculation. 0% means an efficacy which corresponds to that of the untreated control, while an efficacy of 100% means that no disease is observed.

[2] = logP by HPLC on reversed-phase column (EEC Directive 79/831 Annex V.A8); format: physicochemical; conditions: 40° C., 0.1% aqueous formic acid and acetonitrile, linear gradient 10% to 90% acetonitrile
Method: In table 1, the logP values were determined in accordance with EEC Directive 79/831 Annex V.A8 by HPLC (High Performance Liquid Chromatography) on a reversed-phase column (C 18), using the method described below: Temperature: 40° C.; Mobile phases: 0.1% aqueous formic acid and acetonitrile; linear gradient from 10% acetonitrile to 90% acetonitrile. Calibration was carried out using unbranched alkan-2-ones (comprising 3 to 16 carbon atoms) with known logP values (determination of the logP values by the retention times using linear interpolation between two successive alkanones). lambda-max-values were determined using UV-spectra from 200 nm to 400 nm and the peak values of the chromatographic signals.

[3] = system: Alternaria solani; test: in vivo preventive test on Alternaria solani (tomato); conditions: 500 ppm of active ingredient, evaluated 7 days after inoculation
Method: Solvent: 49 parts by weight of N,N-dimethylformamide Emulsifier: 1 part by weight of Alkylarylpolyglycolether To produce a suitable preparation of active compound, 1 part by weight of active compound is mixed with the stated amounts of solvent and emulsifier, and the concentrate is diluted with water to the desired concentration. To test for preventive activity, young plants are sprayed with the preparation of active compound at the stated rate of application. One day after this treatment, the plants are inoculated with an aqueous spore suspension of Alternaria solani. The plants remain for one day in an incubation cabinet at approximately 22° C. and a relative atmospheric humidity of 100%. Then the plants are placed in an incubation cabinet at approximately 20° C. and a relative atmospheric humidity of 96%. The test is evaluated 7 days after the inoculation. 0% means an efficacy which corresponds to that of the untreated control while an efficacy of 100% means that no disease is observed.

[4] = system: Pyrenophora teres; test: in vivo preventive test on Pyrenophora teres (barley); conditions: 500 ppm of active ingredient, evaluated 7-9 days after inoculation
Method: Solvent: 49 parts by weight of N,N-dimethylformamide Emulsifier: 1 part by weight of alkylaryl polyglycol ether To produce a suitable preparation of active compound, 1 part by weight of active compound is mixed with the stated amounts of solvent and emulsifier, and the concentrate is diluted with water to the desired concentration. To test for preventive activity, young plants are sprayed with the preparation of active compound at the stated rate of application. One day after this treatment, the plants are inoculated with an aqueous spore suspension of Pyrenophora teres. The plants remain for 48 hours in an incubation cabinet at 22° C. and a relative atmospheric humidity of 100%. Then the plants are placed in a greenhouse at a temperature of approximately 20° C. and a relative atmospheric humidity of approximately 80%. The test is evaluated 7-9 days after the inoculation. 0% means an efficacy which corresponds to that of the untreated control while an efficacy of 100% means that no disease is observed.

[5] = HPLC on reversed-phase column (C 18)

Structure (SMILES)	Efficacy [1]	logP [2, 5]	Efficacy [3]	Efficacy [4]	logP ([2]; HPLC, reversed-phase column (C 18))
Cn1nc(C(F)F)c(C(=O)NC2(c3cccs3)CCCC2)c1F [Example 34]	70%	2.96	–	–	–
Cn1nc(C(F)F)c(C(=S)N(Cc2csc3ccc(Cl)cc23)C2CC2)c1F [Example 145]	93%	4.36	90%	100%	–
Cn1nc(C(F)F)c(C(=S)N(Cc2cc(C(F)(F)F)nc3ccccc23)C2CC2)c1F [Example 161]	100%	4.26	–	100%	–
Cc1nn(-c2ccccc2)nc1CN(C(=O)c1c(C(F)F)nn(C)c1F)C1CC1 [Example 131]	97%	3.29	90%	95%	–
Cn1nc(C(F)F)c(C(=O)N(Cc2cccs2)C2CC2)c1F [Example 32]	95%	2.59	70%	100%	–
Cn1nc(C(F)F)c(C(=O)N(Cc2c(C(F)(F)F)nn(C)c2OC(F)F)C2CC2)c1F [Example 170]	88%	–	95%	100%	2.76
Cc1c(CN(C(=S)c2c(C(F)F)nn(C)c2F)C2CC2)sc2ccccc12 [Example 124]	98%	4.31	100%	100%	–
Cc1nc(C(F)(F)F)c(CN(C(=O)c2c(C(F)F)nn(C)c2F)C2CC2)s1 [Example 140]	100%	2.75	80%	100%	–
Cn1nc(C(F)F)c(C(=S)N(Cc2c(Cl)cncc2Cl)C2CC2)c1F [Example 117]	95%	3.29	100%	100%	–
Cn1nc(C(F)F)c(C(=O)N(Cc2ccnc3ccc(Cl)cc23)C2CC2)c1F [Example 137]	90%	2.44	80%	100%	–
Cc1nc(-c2ccccc2)sc1CN(C)C(=O)c1c(C(F)F)nn(C)c1F [Example 149]	–	2.77	80%	80%	–
Cn1nc(C(F)F)c(C(=O)N(Cc2ccnc3cc(Cl)cc(Cl)c23)C2CC2)c1F [Example 163]	100%	3.39	–	94%	–
Cn1nc(C(F)F)c(C(=S)N(Cc2cc3ccccc3o2)C2CC2)c1F [Example 73]	85%	3.76	90%	100%	–
Cc1cc(C(C)N(C(=O)c2c(C(F)F)nn(C)c2Cl)C2CC2)c(C)s1 (centres unmarked) [Example 49]	–	3.79	80%	95%	–
Cn1nc(C(F)F)c(C(=O)N(Cc2ccc(Cl)nc2)C2CC2)c1F [Example 67]	–	2.25	95%	90%	–
Cn1nc(C(F)F)c(C(=O)N(Cc2cc(-c3ccccc3)no2)C2CC2)c1F [Example 111]	–	2.92	95%	100%	–
